Measured values taken from publication PMC12031583 (Toxins, 2025).
“And” between values parts separate entries of the source, which are not always exact repeats. Equal values may be shown once. Read-outs that look alike come from different tables or passages of the source.

Columns and labels:
[1] = target: T1, bovine serum albumin (BSA) (Bos taurus, UniProt P02769); settings: cited from earlier work
[2] = target: T2, α1-acid glycoprotein (AGP) (Homo sapiens, UniProt P02763); settings: for effect on fluorescence emission signal of AGP / logK FL Quenching: pH 7.4
T2 sequence (P02763 19-201 limits assumed): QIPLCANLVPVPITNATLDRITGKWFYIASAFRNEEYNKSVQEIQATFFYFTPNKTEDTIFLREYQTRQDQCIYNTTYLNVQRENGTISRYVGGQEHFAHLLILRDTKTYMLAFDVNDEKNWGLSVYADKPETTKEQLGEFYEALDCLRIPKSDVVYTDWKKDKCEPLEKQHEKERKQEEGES

casein (CSN, bovine) [3] = format: binding; settings: pH 6.8
[4] = target: T3, α-lactalbumin (LA, bovine) (Bos taurus, UniProt P00711); format: binding; settings: pH 6.8
T3 sequence (P00711 20-142 limits assumed): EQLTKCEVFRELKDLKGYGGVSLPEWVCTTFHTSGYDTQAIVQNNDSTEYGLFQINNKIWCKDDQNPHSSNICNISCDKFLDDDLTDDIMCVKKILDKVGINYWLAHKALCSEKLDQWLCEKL

[5] = test system: human serum albumin (HSA); settings: cited from earlier work
[6] = target: T4, β-lactoglobulin (LG, bovine) (Bos taurus, UniProt P02754); assay: biochemical; format: binding
T4 sequence (P02754 17-178 limits assumed): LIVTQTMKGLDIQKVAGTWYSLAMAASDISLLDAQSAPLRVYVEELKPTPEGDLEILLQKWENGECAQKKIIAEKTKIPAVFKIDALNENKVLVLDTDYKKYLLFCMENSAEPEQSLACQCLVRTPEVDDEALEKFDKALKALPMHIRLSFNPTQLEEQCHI

[7] = target: T3, α-lactalbumin (LA, bovine); assay: biochemical; format: binding
[8] = target: T1, bovine serum albumin (BSA); assay: biochemical; settings: logK BSA
casein (CSN, bovine) [9] = format: binding; settings: pH 6.8; remark: listed apart in the source
[10] = target: T4, β-lactoglobulin (LG, bovine); format: binding; settings: pH 6.8
[11] = target: T1, bovine serum albumin (BSA)
[12] = target: T2, α1-acid glycoprotein (AGP); assay: in vitro
[13] = target: T2, α1-acid glycoprotein (AGP); assay: in vitro; settings: pH 7.4
[14] = target: T2, α1-acid glycoprotein (AGP); assay: in vitro; remark: listed apart in the source
[15] = target: T2, α1-acid glycoprotein (AGP); settings: pH 7.4
[16] = target: T2, α1-acid glycoprotein (AGP); format: binding
[17] = target: T2, α1-acid glycoprotein (AGP); settings: for logK FL Enhancement: pH 7.4

T1 sequence (P02769 25-607 limits assumed): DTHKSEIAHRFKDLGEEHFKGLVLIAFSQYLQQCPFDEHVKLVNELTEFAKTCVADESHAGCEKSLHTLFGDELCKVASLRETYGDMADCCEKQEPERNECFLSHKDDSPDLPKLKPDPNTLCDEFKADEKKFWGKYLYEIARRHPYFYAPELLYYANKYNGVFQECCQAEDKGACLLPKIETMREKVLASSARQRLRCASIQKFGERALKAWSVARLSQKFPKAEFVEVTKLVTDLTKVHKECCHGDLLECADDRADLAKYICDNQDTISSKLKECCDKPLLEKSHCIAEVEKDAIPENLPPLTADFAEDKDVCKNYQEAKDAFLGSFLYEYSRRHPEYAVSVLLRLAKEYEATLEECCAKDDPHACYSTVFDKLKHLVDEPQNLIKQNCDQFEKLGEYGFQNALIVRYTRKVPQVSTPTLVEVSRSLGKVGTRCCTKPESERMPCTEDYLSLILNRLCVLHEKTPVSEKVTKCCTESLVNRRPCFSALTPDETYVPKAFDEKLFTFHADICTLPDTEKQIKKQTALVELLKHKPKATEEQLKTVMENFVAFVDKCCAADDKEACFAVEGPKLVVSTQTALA

Cc1cc(O)cc2oc(=O)c3c(O)cc(O)cc3c12 [AOH, alternariol]
logK of OTA–BSA and AOH–BSA complexes [1]: 5.9

CC1=C2C(=CO[C@H](C)[C@H]2C)C(O)=C(C(=O)O)C1=O [CIT, citrinin]
effect on fluorescence emission signal of AGP [2]: no or only minor decreases

CC(=O)C1=C(O)[C@@H]2[C@H]3c4c[nH]c5cccc(c45)C[C@H]3C(C)(C)N2C1=O [CPA, cyclopiazonic acid]
effect on fluorescence emission signal of AGP [2]: no or only minor decreases

CC1=C[C@H]2O[C@@H]3[C@H](O)C[C@](C)([C@@]2(CO)[C@H](O)C1=O)[C@]31CO1 [DON, deoxynivalenol]
effect on fluorescence emission signal of AGP [2]: no or only minor decreases

CCCC[C@@H](C)[C@@H](OC(=O)C[C@@H](CC(=O)O)C(=O)O)[C@H](C[C@@H](C)C[C@H](O)CCCC[C@@H](O)C[C@H](O)[C@H](C)N)OC(=O)C[C@@H](CC(=O)O)C(=O)O [FB1, fumonisin B1]
effect on fluorescence emission signal of AGP [2]: no or only minor decreases

C[C@@H]1Cc2c(Cl)cc(C(=O)N[C@@H](Cc3ccccc3)C(=O)O)c(O)c2C(=O)O1 [OTA, ochratoxin A]
effect on fluorescence emission signal of CSN (casein (CSN, bovine) [3]): slight decreases
logK of OTA–BSA and AOH–BSA complexes [1]: 6.5
quenching effect on fluorescence emission signal of LA [4]: slight
effect on fluorescence emission signal of AGP [2]: no or only minor decreases

O=C1C=C2C(=CCOC2O)O1 (centres unmarked) [PAT, patulin]
effect on fluorescence emission signal of AGP [2]: no or only minor decreases

COc1cc2c(c3oc4cccc(O)c4c(=O)c13)[C@@H]1C=CO[C@@H]1O2 [STC, sterigmatocystin]
K value of STC–HSA complex [5]: ≈ 2 × 10^4 L/mol
effect of LG on mycotoxin level (free fraction) in supernatant ([6]; pH 6.8): not influenced
effect of LA on mycotoxin level (free fraction) in supernatant ([7]; pH 6.8): not influenced
Kd [8]: 100 µM and 105 µM
effect on fluorescence emission signal of AGP [2]: larger, concentration-dependent decreases
effect of CSN on mycotoxin level (free fraction) in supernatant (casein (CSN, bovine) [9]): not influenced

CC(=O)OC[C@]12C[C@H](OC(=O)CC(C)C)C(C)=C[C@H]1O[C@@H]1[C@H](O)[C@@H](OC(C)=O)[C@@]2(C)[C@]12CO2 [T2, T-2 toxin]
effect on fluorescence emission signal of LG [10]: minor increase
effect on fluorescence emission signal of AGP [2]: no or only minor decreases

C[C@H]1CCCC(=O)CCC/C=C/c2cc(O)cc(O)c2C(=O)O1 [ZEN, zearalenone]
logK of complex with HSA [5]: 5.1
logK of ZEN–BSA and α-ZEL–BSA complexes [1]: 4.8
quenching effect on fluorescence emission signal of LA [4]: slight
fold higher affinity (binding constant) to BSA vs CSN ([11]; bovine, ultracentrifugation, pH 6.8): approximately 20 fold
Kd [6]: 891 µM
Kd ([12]; pH 7.4, logK FL Quenching): 1.26 µM
Kd ([12]; pH 7.4, logK ± SEM 1. (FL quenching)): 1.35 µM
Kd ([12]; pH 7.4, logK ± SEM 2. (FL quenching)): 1.45 µM
Kd ([12]; pH 7.4, logK ± SEM 3. (FL quenching)): 1 µM
Kd [13]: 0.372 µM
Kd [7]: 1620 µM
Kd [8]: 15.8 µM and 16.2 µM
effect on fluorescence emission signal of AGP [2]: larger, concentration-dependent decreases
logK CSN (casein (CSN, bovine) [9]): 3.48 ± 0.01
Kd ([14]; pH 7.4, logK FL Enhancement): 0.525 µM
Kd ([14]; pH 7.4, logK ± SEM 1. (FL enhancement)): 0.661 µM
Kd ([14]; pH 7.4, logK ± SEM 2. (FL enhancement)): 0.407 µM
Kd ([14]; pH 7.4, logK ± SEM 3. (FL enhancement)): 0.55 µM

C[C@H]1CCC[C@H](O)CCC/C=C/c2cc(O)cc(O)c2C(=O)O1 [α-ZEL, α-zearalenol]
logK Ultracentrifugation [15]: 5.48 ± 0.07
logK of complex with HSA [5]: 4.7
binding constant (K) of mycotoxin–AGP complex [16]: approximately 3 × 10^5 L/mol
fold higher affinity to AGP compared to HSA [16]: ~5 fold
effect on fluorescence emission signal of CSN (casein (CSN, bovine) [3]): slight decreases
logK ± SEM 1. (FL enhancement) [17]: 5.46 ± 0.06
logK ± SEM 2. (FL enhancement) [17]: 5.46 ± 0.08
logK ± SEM 3. (FL enhancement) [17]: 5.62 ± 0.07
logK FL Enhancement [17]: 5.51 ± 0.05
logK of ZEN–BSA and α-ZEL–BSA complexes [1]: 4.5
quenching effect on fluorescence emission signal of LA [4]: slight
fold higher affinity (binding constant) to BSA vs CSN [11]: approximately 20 fold
logK LG ([6]; pH 6.8): 3.35 ± 0.03
logK LA ([7]; pH 6.8): 2.92 ± 0.06
logK ± SEM 1. (FL quenching) [2]: 5.57 ± 0.07
logK ± SEM 2. (FL quenching) [2]: 5.67 ± 0.05
logK ± SEM 3. (FL quenching) [2]: 5.70 ± 0.06
logK FL Quenching [2]: 5.65 ± 0.04
logK CSN (casein (CSN, bovine) [9]): 3.54 ± 0.01

C[C@H]1CCC[C@@H](O)CCC/C=C/c2cc(O)cc(O)c2C(=O)O1 [β-ZEL, β-zearalenol]
logK Ultracentrifugation [15]: 5.73 ± 0.02
logK of complex with HSA [5]: 4.3
binding constant (K) of mycotoxin–AGP complex [16]: ~600000 L/mol
fold higher affinity to AGP compared to HSA [16]: ~30 fold
logK ± SEM 1. (FL enhancement) [17]: 5.83 ± 0.04
logK ± SEM 2. (FL enhancement) [17]: 5.94 ± 0.16
logK ± SEM 3. (FL enhancement) [17]: 6.04 ± 0.11
logK FL Enhancement [17]: 5.94 ± 0.06
logK ± SEM 1. (FL quenching) [2]: 5.76 ± 0.06
logK ± SEM 2. (FL quenching) [2]: 5.82 ± 0.09
logK ± SEM 3. (FL quenching) [2]: 5.76 ± 0.08
logK FL Quenching [2]: 5.78 ± 0.02

aflatoxin B1 [AFB1]
effect on fluorescence emission signal of CSN (casein (CSN, bovine) [3]): slight decreases
logK of AFB1–BSA [1]: ≈ 4.5
quenching effect on fluorescence emission signal of LA [4]: slight
logK BSA ([11]; pH 6.8): 4.1 and 4.11 ± 0.02
effect of LG on mycotoxin level (free fraction) in supernatant ([6]; pH 6.8): did not modify
effect of LA on mycotoxin level (free fraction) in supernatant ([7]; pH 6.8): did not modify
effect on fluorescence emission signal of AGP [2]: no or only minor decreases
logK CSN (casein (CSN, bovine) [9]): 3.3 and 3.34 ± 0.03

aflatoxin M1 [AFM1]
fold higher affinity (binding constant) to BSA vs CSN [11]: 10 fold
logK BSA ([11]; pH 6.8): 3.80 ± 0.03
effect of LG on mycotoxin level (free fraction) in supernatant ([6]; pH 6.8): did not show interactions
effect of LA on mycotoxin level (free fraction) in supernatant ([7]; pH 6.8): did not show interactions
logK CSN (casein (CSN, bovine) [9]): 2.70 ± 0.08
